These results are taken from PMC5697189 (Journal of Veterinary Internal Medicine, 2017).

Where two headings read alike, the source gives them in different places.

The test system of test [1] is recombinant canine GSTT5 (reference). In words: spectrophotometric glutathione conjugation assay, Michaelis-Menten fit. Type of test: biochemical, Canis lupus familiaris. Particulars: co-substrate glutathione (5 mM); pH and temperature not stated.
The test system is the same in test [2]. To be noted: co-substrate glutathione (5 mM); pH and temperature not stated.

The Km is the concentration of substrate that gives half-maximal velocity. Consider `O=[N+]([O-])c1ccc(Cl)c(Cl)c1` [1,2-dichloro-4-nitrobenzene, 1,2‐dichloro‐4‐nitrobenzene], for which the Michaelis constant (Km) in test [1] amounted to 168 ± 27 µM; in test [2], 164 ± 22 µM.
